Measurements from US8728754B1, “Use of proteins isolated from Pseudomonas to control molluscs” (priority 2013, dated 2014).

What was measured:
[1] = tested on: CL145A (ATCC 55799); experiment: Antibiotic resistance profile (antibiotic discs on Mueller-Hinton Agar); conditions: for Suppresses growth of CL145A: 25° C., 72 hours; for CL145A resistant or sensitive to the antibiotic: antibiotic disc, 72 hours incubation
Method: One glycerol stock vial of CL145A was equally distributed onto Mueller-Hinton Agar plates (100 μl per plate) and spread on the plate using a sterile cell spreader. Antibiotic discs were then placed onto the plates along with a blank sterile disc. Plates were incubated at 25° C. in the dark for 72 hours.

[2] = tested on: mussels; experiment: Mussel bioassay in scintillation vials; type: in vivo
Method: Mussel bioassays were performed in twenty milliliter scintillation vials. Ten small mussels (approximately 1 cm long) were incubated in the mussel water (10 mL) for 24 hr first, then the mussel water (10 mL) was changed freshly before test cell lysis was added. Cell lysis or proteins (maximal 500 μL) was added into each vial. After 24 hr, the mussel water with cell lysis or proteins was changed with clean mussel water. Then, mussel water was changed every 24 hr with clean mussel water. Dead mussels were taken away every day and mussel mortality was calculated by number of dead mussel divided by the number of total mussels.

Row | Molecule | Suppresses growth of CL145A ([1]; 10 μg disc) | CL145A resistant or sensitive to the antibiotic [1] | also measured
1 | CC1(C)S[C@@H]2[C@H](NC(=O)[C@H](N)c3ccccc3)C(=O)N2[C@H]1C(=O)O [Ampicillin] | No | resistant | –
2 | CO/N=C(\C(=O)N[C@@H]1C(=O)N2C(C(=O)O)=C(COC(N)=O)CS[C@H]12)c1ccco1 [Cefuroxime] | – | resistant | Suppresses growth of CL145A ([1]; 30 μg disc): No
3 | O=C(N[C@H](CO)[C@H](O)c1ccc([N+](=O)[O-])cc1)C(Cl)Cl [Chloramphenicol] | – | resistant | Suppresses growth of CL145A ([1]; 30 μg disc): No
4 | CC[C@H]1OC(=O)[C@H](C)[C@@H](O[C@H]2C[C@@](C)(OC)[C@@H](O)[C@H](C)O2)[C@H](C)[C@@H](O[C@@H]2O[C@H](C)C[C@H](N(C)C)[C@H]2O)[C@](C)(O)C[C@@H](C)C(=O)[C@H](C)[C@@H](O)[C@]1(C)O [Erythromycin] | – | resistant | Suppresses growth of CL145A ([1]; 15 μg disc): No
5 | CCN1CCN(C(=O)N[C@@H](C(=O)N[C@@H]2C(=O)N3[C@@H]2SC(C)(C)[C@@H]3C(=O)O)c2ccccc2)C(=O)C1=O [Piperacillin] | – | sensitive | Suppresses growth of CL145A ([1]; 100 μg disc): Yes
6 | [H]/N=C(/N)N[C@H]1[C@H](O)[C@@H](O)[C@H](O[C@@H]2O[C@@H](C)[C@](O)(C=O)[C@H]2O[C@@H]2O[C@@H](CO)[C@H](O)[C@@H](O)[C@@H]2NC)[C@@H](N/C(N)=N\[H])[C@@H]1O [Streptomycin] | No | resistant | –
7 | Gentamicin | Yes | sensitive | –
8 | Penicillin | No | resistant | –
9 | Sulphamethoxazole-Trimethoprim | – | sensitive | Suppresses growth of CL145A ([1]; 23.75/25 μg disc): Yes
10 | fumarate hydratase Class II (or fumarase) [Protein B] | – | – | Mussel mortality at 7th day ([2]; 4 ppm, 7th day): 60%; Activity in mussel bioassay of proteins and fractions dosed after gel analysis ([2]; in vivo): active
